± gives the standard deviation of the averaged measurements.
Assays:
Experiment in all cases: level (log10 ratio to DMSO vehicle control); higher = higher biomarker level / cell amount than vehicle control
Details in all cases: in DMSO
[1] = compound: CCN(CCO)S(=O)(=O)C(F)(F)C(F)(F)C(F)(F)C(F)(F)C(F)(F)C(F)(F)C(F)(F)C(F)(F)F [N-Ethyl-N-(2-hydroxyethyl)perfluorooctanesulfonamide]
Method: (§1)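 BioMAP Diversity Plus panel of 12 human primary cell co-culture systems (3C, 4H, LPS, SAg, BT, BF4T, BE3C, CASM3C, HDF3CGF, KF3CT, MyoF, Mphg). Compounds were added 1 h before stimulation and left for 24 h (MyoF 48 h; BT 72 h for soluble read-outs or 6 d for IgG). Biomarkers were read by ELISA, cytotoxicity by SRB, PBMC viability and proliferation by Alamar Blue. Each well value was divided by the mean of 8 DMSO control wells on the same plate and log10 transformed; duplicate blinded samples were tested at 4 concentrations.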

Perfluoroheptanoic acid = compound: O=C(O)C(F)(F)C(F)(F)C(F)(F)C(F)(F)C(F)(F)C(F)(F)F [Perfluoroheptanoic acid]
Method: as §1

Perfluorobutanoic acid = compound: O=C(O)C(F)(F)C(F)(F)C(F)(F)F [Perfluorobutanoic acid]
Method: as §1

[2] = compound: OCC(F)(F)OC(F)(F)C(F)(F)OC(F)(F)CO [1H,1H,8H,8H-Perfluoro-3,6-dioxaoctane-1,8-diol]
Method: as §1

[3] = compound: C=CC(F)(F)C(F)(F)C(F)(F)C(F)(F)C(F)(F)C(F)(F)C(F)(F)C(F)(F)C=C [1,8-Divinylperfluorooctane]
Method: as §1

[4] = compound: C=C(C)C(=O)OCCC(F)(F)C(F)(F)C(F)(F)C(F)(F)C(F)(C(F)(F)F)C(F)(F)F [(Perfluoro-5-methylhexyl)ethyl 2-methylprop-2-enoate]
Method: as §1

[5] = compound: O=C(O)C(F)(F)C(F)(F)C(F)F [4H-Perfluorobutanoic acid]
Method: as §1

| Test System | level (log10) ([1]; 6700 nM) | level (log10) ([1]; 20000 nM) | level (log10) (Perfluoroheptanoic acid; 6700 nM) | level (log10) (Perfluoroheptanoic acid; 20000 nM) | level (log10) (Perfluoroheptanoic acid; 60000 nM) | level (log10) (Perfluorobutanoic acid; 6700 nM) | level (log10) (Perfluorobutanoic acid; 20000 nM) | level (log10) (Perfluorobutanoic acid; 60000 nM) | level (log10) ([2]; 6700 nM) | level (log10) ([2]; 20000 nM) | level (log10) ([2]; 60000 nM) | level (log10) ([3]; 6700 nM) | level (log10) ([3]; 20000 nM) | level (log10) ([4]; 6700 nM) | level (log10) ([4]; 20000 nM) | level (log10) ([5]; 6700 nM) | level (log10) ([5]; 20000 nM) | level (log10) ([5]; 60000 nM) |
| --- | --- | --- | --- | --- | --- | --- | --- | --- | --- | --- | --- | --- | --- | --- | --- | --- | --- | --- |
| SAg:CXCL9/MIG | -0.0135 ± 0.005 | -0.0075 ± 0.013 | -0.0125 ± 0.0078 | 0.0015 ± 0.0064 | 0.0105 ± 0.011 | -0.0045 ± 0.005 | -0.003 ± 0.016 | -0.0065 ± 0.005 | 0.0075 ± 0.0021 | 0 ± 0.0014 | 0.0065 ± 0.0092 | -0.0115 ± 0.0092 | 0.0055 ± 0.018 | 0.002 ± 0.0085 | 0.015 ± 0.0042 | -0.0115 ± 0.00071 | -0.0035 ± 0.0078 | 0.0095 ± 0.016 |
| SAg:PBMC Cytotoxicity | -0.039 ± 0.052 | -0.0865 ± 0.042 | 0.0255 ± 0.0021 | 0.0095 ± 0.019 | 0.0195 ± 0.026 | -0.0155 ± 0.00071 | -0.013 ± 0.037 | -0.009 ± 0.057 | 0.0055 ± 0.005 | 0.028 ± 0.089 | -0.033 ± 0.0042 | 0.017 ± 0.025 | 0.0425 ± 0.00071 | -0.0255 ± 0.018 | 0.0155 ± 0.013 | -0.0205 ± 0.015 | 0.002 ± 0.0042 | 0.017 ± 0.033 |
| SAg:Proliferation | -0.098 ± 0.0057 | -0.335 ± 0.098 | 0.0045 ± 0.032 | 0.0275 ± 0.035 | 0.028 ± 0.034 | -0.04 ± 0.0099 | 0.0325 ± 0.029 | -0.0065 ± 0.039 | -0.025 ± 0.013 | -0.0195 ± 0.023 | -0.0055 ± 0.015 | 0.0155 ± 0.0064 | 0.0455 ± 0.013 | 0.011 ± 0.0085 | 0.009 ± 0.018 | -0.0545 ± 0.026 | -0.0325 ± 0.025 | -0.0145 ± 0.03 |
| SAg:SRB | -0.046 ± 0.0057 | -0.118 ± 0.024 | -0.0155 ± 0.013 | 0.001 ± 0.011 | -0.0385 ± 0.016 | -0.013 ± 0.03 | -0.005 ± 0.02 | -0.0075 ± 0.011 | -0.0115 ± 0.012 | -0.0195 ± 0.0092 | -0.0195 ± 0.016 | -0.0005 ± 0.0021 | 0.0135 ± 0.0021 | -0.001 ± 0.0042 | -0.0105 ± 0.0078 | -0.0055 ± 0.0078 | -0.0145 ± 0.0021 | 0 ± 0.0028 |
